Each compound was assayed against T1, RET (Homo sapiens, UniProt P07949) (assay: Tyrosine kinase inhibition, mobility shift assay (MSA)). Conditions: recombinant human kinase.
T1 construct: purchased Carna Biosciences Inc. 08-159
Type: biochemical
Experimental: A test compound was dissolved in dimethyl sulfoxide to make a 10 mM solution, which was stored in a dark place at 4° C. until use.
Protein tyrosine kinases (recombinant human kinases) used in the study were the following products from Carna Biosciences Inc. (Kobe, Japan).
VEGFR-1 (FLT 1) (product number: 08-189) VEGFR-3 (FLT 4) (product number: 08-190) RON (product number: 08-152) RET (product number: 08-159) KIT (product number: 08-156)
Kinase activity was measured in a mobility shift assay (MSA) method (J. Biomolecular Screening, 11, 359-368, 2006) using QuickScout Screening Assist™ (Carna Biosciences Inc., commercial kit), and enzyme-linked immunoassay (ELISA).
5 μl of the test substance solution obtained by dissolving or suspending in an assay buffer (20 mM Hepes, 0.01% Triton X-100, 1 mM dithiothreitol, pH 7.4) (4× final concentration) or 5 μl of a solvent (4% dimethyl sulfoxide-assay buffer) was dispensed into a polypropylene 384-well plate (Greiner Bio-One, product number 781280). Then, 5 μl of QuickScout Screening Assist™ MSA in an ATP/substrate/metal solution was added. Additionally, 10 μl of the kinase solution diluted with the assay buffer was added to initiate a reaction. For a blank, only 10 μl of the assay buffer was added. The kinase concentration and reaction conditions were in accordance with the protocol of QuickScout Screening Assist™ MSA. Then, the reaction was terminated by addition of 60 μl of a termination buffer of the QuickScout Screening Assist™ MSA, and the amount of a substrate (S) and a phosphorylated substrate (P) in the reaction solution were determined using LabChip3000 (Caliper Life Science, Massachusetts, U.S.A.) in accordance with the protocol of QuickScout Screening Assist™ MSA. The amounts of the S and P were represented by respective separated peak height. […] It was on the condition that the signal was determined as P/(P+S).

T1 sequence (P07949 29-1114): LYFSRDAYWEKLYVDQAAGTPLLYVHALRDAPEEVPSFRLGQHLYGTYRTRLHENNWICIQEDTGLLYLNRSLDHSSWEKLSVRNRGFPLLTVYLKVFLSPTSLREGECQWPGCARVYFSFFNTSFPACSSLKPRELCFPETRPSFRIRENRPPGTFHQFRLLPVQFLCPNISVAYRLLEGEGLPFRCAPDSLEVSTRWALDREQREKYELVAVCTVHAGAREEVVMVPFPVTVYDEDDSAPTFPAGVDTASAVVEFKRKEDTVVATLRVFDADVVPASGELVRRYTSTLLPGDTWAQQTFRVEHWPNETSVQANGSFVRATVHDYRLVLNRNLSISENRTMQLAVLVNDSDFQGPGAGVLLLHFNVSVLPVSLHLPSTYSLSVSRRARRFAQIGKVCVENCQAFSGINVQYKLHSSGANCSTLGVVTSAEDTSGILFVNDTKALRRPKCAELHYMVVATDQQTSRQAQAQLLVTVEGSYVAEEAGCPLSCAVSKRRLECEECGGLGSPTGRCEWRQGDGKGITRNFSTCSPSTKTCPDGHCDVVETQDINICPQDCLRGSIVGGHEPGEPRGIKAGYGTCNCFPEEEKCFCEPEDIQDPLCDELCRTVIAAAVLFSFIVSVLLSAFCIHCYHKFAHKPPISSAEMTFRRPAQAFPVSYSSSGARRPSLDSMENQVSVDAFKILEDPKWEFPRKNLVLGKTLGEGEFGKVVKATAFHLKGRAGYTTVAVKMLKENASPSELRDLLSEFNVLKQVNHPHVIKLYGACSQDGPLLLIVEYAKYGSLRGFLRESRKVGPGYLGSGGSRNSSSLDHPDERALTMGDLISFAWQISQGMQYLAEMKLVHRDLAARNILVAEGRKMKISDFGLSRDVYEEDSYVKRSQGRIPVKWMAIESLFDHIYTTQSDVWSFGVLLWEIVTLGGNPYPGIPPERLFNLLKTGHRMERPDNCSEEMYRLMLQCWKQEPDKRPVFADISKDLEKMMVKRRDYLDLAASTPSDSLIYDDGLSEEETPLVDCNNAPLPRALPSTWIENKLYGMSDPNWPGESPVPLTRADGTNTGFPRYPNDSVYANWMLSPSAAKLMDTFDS

IC50 | SMILES
38 nM | CN1CCN(C2CCN(C(=O)Nc3cc(Oc4cc(F)c(NC(=O)C5(C(=O)Nc6ccc(F)cc6)CC5)cc4F)ccn3)CC2)CC1 [N-(2,5-Difluoro-4-{[2-({[4-(4-methylpiperazin-1-yl)piperidin-1-yl]carbonyl}amino)pyridin-4-yl]oxy}phenyl)-N′-(4-fluorophenyl)cyclopropane-1,1-dicarboxamide]
99 nM | O=C(Nc1cc(Oc2ccc(NC(=O)C3(C(=O)Nc4ccc(F)cc4)CC3)c(F)c2)ccn1)N1CCC1 [N-[4-({2-[(Azetidin-1-ylcarbonyl)amino]pyridin-4-yl}oxy)-2-fluorophenyl]-N′-(4-fluorophenyl)cyclopropane-1,1-dicarboxamide]
44 nM | O=C(Nc1cc(Oc2cc(F)c(NC(=O)C3(C(=O)Nc4ccc(F)cc4)CC3)cc2F)ccn1)N1CC(O)C1 [N-{2,5-Difluoro-4-[(2-{[(3-hydroxyazetidin-1-yl)carbonyl]amino}pyridin-4-yl)oxy]phenyl}-N′-(4-fluorophenyl)cyclopropane-1,1-dicarboxamide]
28 nM | O=C(Nc1cc(Oc2cc(F)c(NC(=O)C3(C(=O)Nc4ccc(F)cc4)CC3)cc2F)ccn1)N1CC(CO)C1 [N-(2,5-Difluoro-4-{[2-({[3-(hydroxymethyl)azetidin-1-yl]carbonyl}amino)pyridin-4-yl]oxy}phenyl)-N′-(4-fluorophenyl)cyclopropane-1,1-dicarboxamide]
36 nM | CN1CCC(N(C)C(=O)Nc2cc(Oc3cc(F)c(NC(=O)C4(C(=O)Nc5ccc(F)cc5)CC4)cc3F)ccn2)CC1 [N-(2,5-Difluoro-4-{[2-({[methyl(1-methylpiperidin-4-yl)amino]carbonyl}amino)pyridin-4-yl]oxy}phenyl)-N′-(4-fluorophenyl)cyclopropane-1,1-dicarboxamide]

From US20090227556A1, “RECEPTOR TYROSINE KINASE INHIBITORS COMPRISING PYRIDINE AND PYRIMIDINE DERIVATIVES” (Eisai R&D Management Co., Ltd., priority 2008, published 2009)
